Results taken from ChEMBL document CHEMBL1152560, “Substituted 2-arylbenzothiazoles as kinase inhibitors: hit-to-lead optimization” (Bioorg Med Chem, 2009).

Assays:
[1] = target: Tyrosine-protein kinase HCK (Homo sapiens) (UniProt P08631); test: Residual activity of HCK at 1 uM by microplate scintillation counting
[2] = target: Death-associated protein kinase 1 (Homo sapiens) (UniProt P53355); test: Residual activity of DAPK1 at 10 uM by microplate scintillation counting
[3] = target: T1, G protein-coupled receptor kinase 3 (Homo sapiens) (UniProt P35626); test: Residual activity of GRK3 at 10 uM by microplate scintillation counting
T1 sequence (whole entry): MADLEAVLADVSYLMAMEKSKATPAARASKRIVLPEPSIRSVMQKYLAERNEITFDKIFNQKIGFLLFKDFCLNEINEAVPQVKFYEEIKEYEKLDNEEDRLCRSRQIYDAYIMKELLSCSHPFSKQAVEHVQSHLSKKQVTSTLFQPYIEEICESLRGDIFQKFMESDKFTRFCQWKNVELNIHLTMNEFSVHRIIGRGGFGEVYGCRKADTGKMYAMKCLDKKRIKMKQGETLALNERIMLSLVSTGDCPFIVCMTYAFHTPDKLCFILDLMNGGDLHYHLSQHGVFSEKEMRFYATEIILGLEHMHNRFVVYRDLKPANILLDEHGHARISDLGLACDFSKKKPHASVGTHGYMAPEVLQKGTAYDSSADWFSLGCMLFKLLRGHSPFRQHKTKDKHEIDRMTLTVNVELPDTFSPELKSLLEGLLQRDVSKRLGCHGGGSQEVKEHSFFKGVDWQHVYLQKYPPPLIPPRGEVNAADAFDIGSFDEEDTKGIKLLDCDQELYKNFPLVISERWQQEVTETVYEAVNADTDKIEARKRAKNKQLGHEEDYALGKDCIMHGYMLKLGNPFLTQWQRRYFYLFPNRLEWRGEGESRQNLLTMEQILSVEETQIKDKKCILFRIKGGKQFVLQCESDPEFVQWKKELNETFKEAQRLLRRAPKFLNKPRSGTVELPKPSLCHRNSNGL

[4] = target: Interleukin-1 receptor-associated kinase 1 (Homo sapiens) (UniProt P51617); test: Residual activity of IRAKI at 10 uM by microplate scintillation counting
[5] = target: T2, Serine/threonine-protein kinase VRK1 (Homo sapiens) (UniProt Q99986); test: Residual activity of VRK1 at 0.1 uM by microplate scintillation counting
T2 sequence (whole entry): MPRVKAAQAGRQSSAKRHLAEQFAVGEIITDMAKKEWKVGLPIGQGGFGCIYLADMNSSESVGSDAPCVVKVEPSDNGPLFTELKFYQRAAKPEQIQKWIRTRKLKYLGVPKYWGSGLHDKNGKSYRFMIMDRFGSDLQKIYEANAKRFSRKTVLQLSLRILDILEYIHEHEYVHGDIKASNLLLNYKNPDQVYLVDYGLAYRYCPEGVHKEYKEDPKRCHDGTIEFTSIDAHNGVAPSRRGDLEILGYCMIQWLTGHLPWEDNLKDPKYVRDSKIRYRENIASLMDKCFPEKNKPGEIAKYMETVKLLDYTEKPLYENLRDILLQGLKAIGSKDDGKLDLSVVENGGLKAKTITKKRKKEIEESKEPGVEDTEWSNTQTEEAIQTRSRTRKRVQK

[6] = target: Tyrosine-protein kinase Blk (Homo sapiens) (UniProt P51451); test: Residual activity of BLK at 10 uM by microplate scintillation counting
[7] = target: T3, Calcium/calmodulin-dependent protein kinase type IV (Homo sapiens) (UniProt Q16566); test: Residual activity of CAMK4 at 10 uM by microplate scintillation counting
T3 sequence (whole entry): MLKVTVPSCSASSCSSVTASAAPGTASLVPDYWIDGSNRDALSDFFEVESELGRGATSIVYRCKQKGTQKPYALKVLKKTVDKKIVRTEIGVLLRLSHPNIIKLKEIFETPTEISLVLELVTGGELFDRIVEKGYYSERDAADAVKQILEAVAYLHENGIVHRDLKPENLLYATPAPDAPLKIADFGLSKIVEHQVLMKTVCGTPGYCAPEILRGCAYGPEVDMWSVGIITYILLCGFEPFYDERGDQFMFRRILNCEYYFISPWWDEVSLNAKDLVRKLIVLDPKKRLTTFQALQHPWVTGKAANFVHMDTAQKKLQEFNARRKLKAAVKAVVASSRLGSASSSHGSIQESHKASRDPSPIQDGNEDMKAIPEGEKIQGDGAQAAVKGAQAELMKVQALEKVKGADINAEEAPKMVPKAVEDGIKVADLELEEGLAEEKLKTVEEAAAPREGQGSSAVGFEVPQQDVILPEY

[8] = target: T4, Tyrosine-protein kinase Mer (Homo sapiens) (UniProt Q12866); test: Residual activity of MERTK at 10 uM by microplate scintillation counting
T4 sequence (whole entry): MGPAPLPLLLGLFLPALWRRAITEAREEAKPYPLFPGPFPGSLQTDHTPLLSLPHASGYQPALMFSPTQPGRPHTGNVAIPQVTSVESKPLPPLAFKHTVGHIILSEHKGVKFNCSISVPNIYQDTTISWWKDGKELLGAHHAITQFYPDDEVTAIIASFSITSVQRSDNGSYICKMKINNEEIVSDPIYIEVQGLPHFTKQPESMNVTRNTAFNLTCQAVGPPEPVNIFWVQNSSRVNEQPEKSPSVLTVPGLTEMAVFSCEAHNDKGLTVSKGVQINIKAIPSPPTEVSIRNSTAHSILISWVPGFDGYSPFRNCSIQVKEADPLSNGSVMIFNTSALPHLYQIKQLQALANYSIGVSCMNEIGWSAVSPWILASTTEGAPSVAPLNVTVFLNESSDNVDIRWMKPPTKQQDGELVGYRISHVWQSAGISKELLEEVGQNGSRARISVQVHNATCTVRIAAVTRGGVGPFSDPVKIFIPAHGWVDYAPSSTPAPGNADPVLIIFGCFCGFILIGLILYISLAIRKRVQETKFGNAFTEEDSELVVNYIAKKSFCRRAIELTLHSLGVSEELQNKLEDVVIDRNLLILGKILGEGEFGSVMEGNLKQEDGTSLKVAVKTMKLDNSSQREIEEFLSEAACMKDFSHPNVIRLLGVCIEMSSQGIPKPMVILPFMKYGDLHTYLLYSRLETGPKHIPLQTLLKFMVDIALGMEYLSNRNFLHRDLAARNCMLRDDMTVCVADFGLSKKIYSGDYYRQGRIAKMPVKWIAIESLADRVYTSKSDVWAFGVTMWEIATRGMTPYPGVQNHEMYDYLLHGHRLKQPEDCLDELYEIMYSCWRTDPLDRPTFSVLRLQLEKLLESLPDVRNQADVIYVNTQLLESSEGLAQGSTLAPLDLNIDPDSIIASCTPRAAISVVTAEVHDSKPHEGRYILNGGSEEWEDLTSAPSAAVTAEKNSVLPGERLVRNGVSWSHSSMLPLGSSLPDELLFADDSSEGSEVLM

[9] = target: PAS domain-containing serine/threonine-protein kinase (Homo sapiens) (UniProt Q96RG2); test: Residual activity of PASK at 10 uM by microplate scintillation counting
Sequence of PAS domain-containing serine/threonine-protein kinase (Homo sapiens) (Q96RG2 whole entry, the tested form may be a part): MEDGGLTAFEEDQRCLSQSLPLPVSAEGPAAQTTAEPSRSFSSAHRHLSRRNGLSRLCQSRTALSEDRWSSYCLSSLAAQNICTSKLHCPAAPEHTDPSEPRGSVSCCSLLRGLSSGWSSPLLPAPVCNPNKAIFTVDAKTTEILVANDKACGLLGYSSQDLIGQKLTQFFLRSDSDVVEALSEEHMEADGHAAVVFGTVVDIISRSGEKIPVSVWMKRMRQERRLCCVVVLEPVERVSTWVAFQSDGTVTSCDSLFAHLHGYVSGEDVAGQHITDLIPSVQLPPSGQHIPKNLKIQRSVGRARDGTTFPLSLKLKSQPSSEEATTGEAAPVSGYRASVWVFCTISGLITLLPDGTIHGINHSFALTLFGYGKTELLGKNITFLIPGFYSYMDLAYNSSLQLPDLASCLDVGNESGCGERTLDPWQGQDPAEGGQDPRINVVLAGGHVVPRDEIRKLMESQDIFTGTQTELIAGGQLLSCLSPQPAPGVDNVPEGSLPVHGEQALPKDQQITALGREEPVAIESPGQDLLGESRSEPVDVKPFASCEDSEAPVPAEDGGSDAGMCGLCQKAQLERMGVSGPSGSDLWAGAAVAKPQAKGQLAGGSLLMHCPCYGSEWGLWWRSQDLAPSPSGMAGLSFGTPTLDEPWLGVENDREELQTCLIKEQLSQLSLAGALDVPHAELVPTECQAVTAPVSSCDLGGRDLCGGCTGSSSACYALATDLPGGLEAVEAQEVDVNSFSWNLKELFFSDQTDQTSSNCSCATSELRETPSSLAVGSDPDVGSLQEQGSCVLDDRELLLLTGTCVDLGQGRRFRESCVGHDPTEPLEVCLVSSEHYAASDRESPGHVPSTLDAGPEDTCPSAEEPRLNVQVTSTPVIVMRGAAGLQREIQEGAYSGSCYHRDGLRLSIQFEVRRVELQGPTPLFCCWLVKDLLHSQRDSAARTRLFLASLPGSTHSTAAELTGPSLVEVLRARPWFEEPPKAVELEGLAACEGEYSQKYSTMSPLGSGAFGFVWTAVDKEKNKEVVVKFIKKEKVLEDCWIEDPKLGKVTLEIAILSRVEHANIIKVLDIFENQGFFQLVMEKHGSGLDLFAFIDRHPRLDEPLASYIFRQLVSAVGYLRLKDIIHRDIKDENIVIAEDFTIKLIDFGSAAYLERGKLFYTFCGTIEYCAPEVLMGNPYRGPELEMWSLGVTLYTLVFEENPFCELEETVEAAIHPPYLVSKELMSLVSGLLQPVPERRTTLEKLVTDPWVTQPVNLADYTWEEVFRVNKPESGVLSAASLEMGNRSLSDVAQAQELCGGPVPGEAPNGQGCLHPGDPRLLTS

Sequence of Tyrosine-protein kinase HCK (Homo sapiens) (P08631 2-526 limits assumed): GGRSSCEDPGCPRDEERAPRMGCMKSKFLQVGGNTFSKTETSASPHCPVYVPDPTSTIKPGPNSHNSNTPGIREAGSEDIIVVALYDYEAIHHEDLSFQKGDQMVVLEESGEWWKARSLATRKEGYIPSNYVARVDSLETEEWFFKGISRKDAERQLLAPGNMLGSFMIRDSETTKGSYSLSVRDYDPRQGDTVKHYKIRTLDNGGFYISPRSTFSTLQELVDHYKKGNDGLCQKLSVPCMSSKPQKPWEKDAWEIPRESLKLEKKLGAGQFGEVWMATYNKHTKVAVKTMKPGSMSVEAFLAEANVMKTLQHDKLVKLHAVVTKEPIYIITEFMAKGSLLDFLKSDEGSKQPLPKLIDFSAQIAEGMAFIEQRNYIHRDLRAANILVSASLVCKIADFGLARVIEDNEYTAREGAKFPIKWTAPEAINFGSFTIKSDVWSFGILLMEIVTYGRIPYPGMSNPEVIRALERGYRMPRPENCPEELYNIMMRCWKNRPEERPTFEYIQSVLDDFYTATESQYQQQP
Sequence of Death-associated protein kinase 1 (Homo sapiens) (P53355 whole entry, looked up): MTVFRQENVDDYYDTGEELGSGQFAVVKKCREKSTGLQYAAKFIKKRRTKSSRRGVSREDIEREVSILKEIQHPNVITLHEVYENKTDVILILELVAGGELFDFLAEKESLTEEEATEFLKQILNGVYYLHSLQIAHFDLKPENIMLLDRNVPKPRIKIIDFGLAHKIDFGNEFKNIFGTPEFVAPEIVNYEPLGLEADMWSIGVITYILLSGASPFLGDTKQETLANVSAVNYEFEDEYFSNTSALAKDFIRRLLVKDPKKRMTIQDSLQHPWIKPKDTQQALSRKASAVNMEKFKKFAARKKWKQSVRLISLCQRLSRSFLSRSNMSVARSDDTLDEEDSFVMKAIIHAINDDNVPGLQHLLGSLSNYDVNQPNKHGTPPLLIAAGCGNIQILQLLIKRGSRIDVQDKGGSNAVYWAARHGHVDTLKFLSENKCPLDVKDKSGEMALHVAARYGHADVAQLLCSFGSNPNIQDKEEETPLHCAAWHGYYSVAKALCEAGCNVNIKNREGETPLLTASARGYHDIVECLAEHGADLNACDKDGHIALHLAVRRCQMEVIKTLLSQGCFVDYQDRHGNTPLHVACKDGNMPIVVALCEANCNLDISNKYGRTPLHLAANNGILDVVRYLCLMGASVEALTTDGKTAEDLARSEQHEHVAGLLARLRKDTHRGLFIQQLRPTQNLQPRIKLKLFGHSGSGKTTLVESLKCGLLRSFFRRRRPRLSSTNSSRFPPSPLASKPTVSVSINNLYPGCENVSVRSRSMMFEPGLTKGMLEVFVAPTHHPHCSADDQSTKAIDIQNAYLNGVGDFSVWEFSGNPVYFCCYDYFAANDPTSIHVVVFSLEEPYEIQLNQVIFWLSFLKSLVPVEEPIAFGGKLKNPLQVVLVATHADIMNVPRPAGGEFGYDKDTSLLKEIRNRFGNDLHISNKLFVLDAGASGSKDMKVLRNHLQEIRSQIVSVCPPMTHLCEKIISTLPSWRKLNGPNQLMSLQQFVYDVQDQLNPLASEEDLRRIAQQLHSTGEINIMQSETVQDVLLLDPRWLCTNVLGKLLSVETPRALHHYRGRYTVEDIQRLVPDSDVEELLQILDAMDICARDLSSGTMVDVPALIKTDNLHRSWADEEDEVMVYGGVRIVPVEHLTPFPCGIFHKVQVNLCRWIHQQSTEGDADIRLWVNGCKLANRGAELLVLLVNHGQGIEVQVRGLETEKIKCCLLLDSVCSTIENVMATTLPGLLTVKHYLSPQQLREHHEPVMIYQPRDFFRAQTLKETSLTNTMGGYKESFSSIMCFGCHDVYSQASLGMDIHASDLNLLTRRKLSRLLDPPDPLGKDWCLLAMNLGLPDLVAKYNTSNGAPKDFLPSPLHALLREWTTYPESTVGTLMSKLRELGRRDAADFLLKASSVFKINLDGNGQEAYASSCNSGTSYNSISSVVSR
Sequence of Interleukin-1 receptor-associated kinase 1 (Homo sapiens) (P51617 whole entry, looked up): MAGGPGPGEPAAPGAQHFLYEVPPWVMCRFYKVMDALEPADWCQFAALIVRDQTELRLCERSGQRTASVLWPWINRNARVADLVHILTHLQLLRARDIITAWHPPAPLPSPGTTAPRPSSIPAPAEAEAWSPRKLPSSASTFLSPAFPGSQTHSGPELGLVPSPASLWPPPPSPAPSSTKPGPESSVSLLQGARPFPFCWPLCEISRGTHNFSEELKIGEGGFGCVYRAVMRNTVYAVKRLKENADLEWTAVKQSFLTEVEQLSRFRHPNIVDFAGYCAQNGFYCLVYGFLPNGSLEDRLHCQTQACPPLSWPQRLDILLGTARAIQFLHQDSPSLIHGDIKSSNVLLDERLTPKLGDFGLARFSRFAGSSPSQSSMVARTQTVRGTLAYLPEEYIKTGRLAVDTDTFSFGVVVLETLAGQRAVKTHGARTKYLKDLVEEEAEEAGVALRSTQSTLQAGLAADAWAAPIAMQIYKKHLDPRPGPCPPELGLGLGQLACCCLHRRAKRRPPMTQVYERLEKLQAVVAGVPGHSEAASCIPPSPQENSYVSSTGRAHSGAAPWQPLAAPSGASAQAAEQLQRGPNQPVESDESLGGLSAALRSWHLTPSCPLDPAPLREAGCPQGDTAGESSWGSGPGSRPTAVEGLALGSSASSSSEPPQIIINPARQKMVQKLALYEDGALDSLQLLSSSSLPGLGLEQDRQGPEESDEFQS
Sequence of Tyrosine-protein kinase Blk (Homo sapiens) (P51451 2-505 limits assumed): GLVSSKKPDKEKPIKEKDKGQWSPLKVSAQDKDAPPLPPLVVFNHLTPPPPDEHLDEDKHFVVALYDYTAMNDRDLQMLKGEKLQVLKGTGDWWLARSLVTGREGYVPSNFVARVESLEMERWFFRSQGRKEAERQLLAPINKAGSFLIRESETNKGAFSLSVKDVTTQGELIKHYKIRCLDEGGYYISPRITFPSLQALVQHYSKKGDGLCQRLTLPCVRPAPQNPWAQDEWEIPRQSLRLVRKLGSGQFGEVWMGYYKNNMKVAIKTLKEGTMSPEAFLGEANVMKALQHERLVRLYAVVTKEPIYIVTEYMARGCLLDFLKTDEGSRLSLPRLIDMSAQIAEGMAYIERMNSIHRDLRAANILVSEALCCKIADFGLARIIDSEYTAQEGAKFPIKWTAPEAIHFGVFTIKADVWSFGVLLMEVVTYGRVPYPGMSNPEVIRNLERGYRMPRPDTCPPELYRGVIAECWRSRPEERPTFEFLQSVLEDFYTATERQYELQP

| residual activity [1] | residual activity [3] | residual activity [4] | residual activity [5] | residual activity [6] | residual activity [7] | residual activity [8] | residual activity [9] | Structure (SMILES) | residual activity [2] |
| --- | --- | --- | --- | --- | --- | --- | --- | --- | --- |
| 116% | 110% | 18% | 93% | 33% | 88% | 1% | 83% | COc1cc2c(Oc3ccc(-c4nc5ccccc5s4)cc3)ncnc2cc1OCCCN1CCCC1 | 25% |
| 93% | 135% | 23% | 97% | 34% | 227% | 3% | 96% | COc1cc2c(Oc3ccc(-c4nc5ccccc5s4)cc3)ncnc2cc1OCCCN1CCN(C)CC1 | 24% |
| 99% | 125% | 18% | 89% | 10% | 211% | 2% | 79% | COc1cc2c(Oc3ccc(-c4nc5ccccc5s4)cc3F)ncnc2cc1OCCCN1CCN(C)CC1 | 15% |
